Test results as given in the supplement of paper PMC10307832.

Tests used:
Experiment in all cases: relative viability (nuclei count vs DMSO), 5 days (fraction); higher = more cells survive
[1] = compound: O=C(Nc1cccc(C(F)(F)F)c1)Nc1cc(S(=O)(=O)NC2CC2)ccc1-c1ccsc1 [AGI-6780] + C[C@]1(O)C[C@@H](c2nc(-c3ccc4ccc(-c5ccccc5)nc4c3)c3c(N)nccn32)C1 [Linsitinib] (partner 1 µM)
Method in brief: (§1)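 Nuclei were stained with Hoechst during a one-step fixation (final 0.05% Triton X-100, 1% formaldehyde, 1 ug/ml Hoechst) carried out 5 days after dosing, then counted on 4× images. The cells, lung cancer lines in 1536-well plates, had been dosed by pin tool the day after seeding with one drug alone or a fixed anchor-drug dose plus five library-drug doses (not always all listed) in √10 steps. Relative viability is the nuclei count in treated wells divided by that in vehicle wells, and each value is the median of duplicate plates.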

[2] = compound: O=C(Nc1cccc(C(F)(F)F)c1)Nc1cc(S(=O)(=O)NC2CC2)ccc1-c1ccsc1 [AGI-6780] + CS(=O)(=O)N1CCN(Cc2cc3nc(-c4cccc5[nH]ncc45)nc(N4CCOCC4)c3s2)CC1 [Pictilisib] (partner 1 µM)
Method in brief: as §1

[3] = compound: O=C(Nc1cccc(C(F)(F)F)c1)Nc1cc(S(=O)(=O)NC2CC2)ccc1-c1ccsc1 [AGI-6780] + CS(=O)(=O)CCNCc1ccc(-c2ccc3ncnc(Nc4ccc(OCc5cccc(F)c5)c(Cl)c4)c3c2)o1 [Lapatinib] (partner 2 µM)
Method in brief: as §1

[4] = compound: O=C(Nc1cccc(C(F)(F)F)c1)Nc1cc(S(=O)(=O)NC2CC2)ccc1-c1ccsc1 [AGI-6780] + CC(C)C[C@H](NC(=O)[C@H](Cc1ccccc1)NC(=O)c1cnccn1)B(O)O [Bortezomib] (partner 0.002 µM)
Method in brief: as §1

[5] = compound: O=C(Nc1cccc(C(F)(F)F)c1)Nc1cc(S(=O)(=O)NC2CC2)ccc1-c1ccsc1 [AGI-6780] + C[C@@H](Oc1cc(-c2cnn(C3CCNCC3)c2)cnc1N)c1c(Cl)ccc(F)c1Cl [Crizotinib] (partner 1 µM)
Method in brief: as §1

[6] = compound: O=C(Nc1cccc(C(F)(F)F)c1)Nc1cc(S(=O)(=O)NC2CC2)ccc1-c1ccsc1 [AGI-6780] + O=C(c1cc(Cc2n[nH]c(=O)c3ccccc23)ccc1F)N1CCN(C(=O)C2CC2)CC1 [Olaparib] (partner 8 µM)
Method in brief: as §1

[7] = compound: O=C(Nc1cccc(C(F)(F)F)c1)Nc1cc(S(=O)(=O)NC2CC2)ccc1-c1ccsc1 [AGI-6780] + Cc1nc(NC(=O)N2CCC[C@H]2C(N)=O)sc1-c1ccnc(C(C)(C)C(F)(F)F)c1 [Alpelisib] (partner 2 µM)
Method in brief: as §1

[8] = compound: O=C(Nc1cccc(C(F)(F)F)c1)Nc1cc(S(=O)(=O)NC2CC2)ccc1-c1ccsc1 [AGI-6780] + CC1(C)CCC(c2ccc(Cl)cc2)=C(CN2CCN(c3ccc(C(=O)NS(=O)(=O)c4ccc(N[C@H](CCN5CCOCC5)CSc5ccccc5)c(S(=O)(=O)C(F)(F)F)c4)cc3)CC2)C1 [Navitoclax] (partner 0.5 µM)
Method in brief: as §1

[9] = compound: O=C(Nc1cccc(C(F)(F)F)c1)Nc1cc(S(=O)(=O)NC2CC2)ccc1-c1ccsc1 [AGI-6780] + COc1cc2c(Oc3ccc(NC(=O)C4(C(=O)Nc5ccc(F)cc5)CC4)cc3F)ccnc2cc1OCCCN1CCOCC1 [Foretinib] (partner 0.25 µM)
Method in brief: as §1

[10] = compound: O=C(Nc1cccc(C(F)(F)F)c1)Nc1cc(S(=O)(=O)NC2CC2)ccc1-c1ccsc1 [AGI-6780]
Method in brief: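 On vehicle-anchored 1536-well plates, lung cancer cell lines held overnight at 37 °C were pinned with five library-drug doses (not always all listed) spaced by √10. With no medium change over 5 days, they were then fixed, permeabilised and Hoechst-stained in one step and imaged at 4×. MetaXpress counted nuclei, and viability is the median across plates of treated-well over vehicle-well nuclei. Acceptance needed control CV below 25% and at least one doubling.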

In the case of EBC-1, the relative viability ([1]; first compound 0.08 µM) is reported as 0.861, the relative viability ([1]; first compound 0.253 µM) is reported as 1.13 and the relative viability ([1]; first compound 0.8 µM) is reported as 0.885. For the same cell line, the relative viability ([1]; first compound 2.53 µM) was 0.836, the relative viability ([1]; first compound 8 µM) was 0.94 and the relative viability ([2]; first compound 0.08 µM) was 0.388. The relative viability ([2]; first compound 0.253 µM) was 0.337, the relative viability ([2]; first compound 0.8 µM) was 0.343 and the relative viability ([2]; first compound 2.53 µM) was 0.379. The relative viability ([2]; first compound 8 µM) was 0.347, the relative viability ([3]; first compound 0.08 µM) was 0.224 and the relative viability ([3]; first compound 0.253 µM) was 0.21. It also gave a relative viability ([3]; first compound 0.8 µM) of 0.198, a relative viability ([3]; first compound 2.53 µM) of 0.202 and a relative viability ([3]; first compound 8 µM) of 0.201. It also gave a relative viability ([4]; first compound 0.08 µM) of 0.781, a relative viability ([4]; first compound 0.253 µM) of 0.566 and a relative viability ([4]; first compound 0.8 µM) of 0.485. The relative viability ([4]; first compound 2.53 µM) was 0.601, the relative viability ([4]; first compound 8 µM) was 0.529 and the relative viability ([5]; first compound 0.08 µM) was 0.199. For the same cell line, the relative viability ([5]; first compound 0.253 µM) was 0.184, the relative viability ([5]; first compound 0.8 µM) was 0.186 and the relative viability ([5]; first compound 2.53 µM) was 0.175. The relative viability ([5]; first compound 8 µM) was 0.183, the relative viability ([6]; first compound 0.08 µM) was 0.788 and the relative viability ([6]; first compound 0.253 µM) was 0.789. For the same cell line, the relative viability ([6]; first compound 0.8 µM) was 0.664, the relative viability ([6]; first compound 2.53 µM) was 0.655 and the relative viability ([6]; first compound 8 µM) was 0.747. For the same cell line, the relative viability ([7]; first compound 0.08 µM) was 0.965, the relative viability ([7]; first compound 0.253 µM) was 0.923 and the relative viability ([7]; first compound 0.8 µM) was 0.798. The relative viability ([7]; first compound 2.53 µM) was 0.783, the relative viability ([7]; first compound 8 µM) was 0.841 and the relative viability ([8]; first compound 0.08 µM) was 0.407. It also gave a relative viability ([8]; first compound 0.253 µM) of 0.429, a relative viability ([8]; first compound 0.8 µM) of 0.365 and a relative viability ([8]; first compound 2.53 µM) of 0.512. For the same cell line, the relative viability ([8]; first compound 8 µM) was 0.38, the relative viability ([9]; first compound 0.08 µM) was 0.104 and the relative viability ([9]; first compound 0.253 µM) was 0.105. The relative viability ([9]; first compound 0.8 µM) was 0.106, the relative viability ([9]; first compound 2.53 µM) was 0.11 and the relative viability ([9]; first compound 8 µM) was 0.104. It also gave a relative viability ([10]; 0.08 µM) of 1.07, a relative viability ([10]; 0.253 µM) of 1.04 and a relative viability ([10]; 0.8 µM) of 0.985. The relative viability ([10]; 2.53 µM) was 1 and the relative viability ([10]; 8 µM) was 1.
